Drawing on ChEMBL document CHEMBL3232798, “Synthesis and antimycobacterial activities of some new thiazolylhydrazone derivatives” (Bioorg Med Chem Lett, 2014), this text covers MIC and cytotoxicity for 19 compounds.

Structures are written as SMILES. ≈ marks a conversion by molar mass, not a printed value.

For data set [1], the system named is Mycobacterium tuberculosis. As to the kind of experiment: Antimycobacterial activity against Mycobacterium tuberculosis H37Rv by microplate alamar blue assay. Type of data set: functional.
Data set [2] is described as follows: Cytotoxicity against human THP1 cells at 50 ug/ml by MTT assay. Type of data set: cell-based. Conditions: THP-1 cells, read-out: INH.

Compound `C(=N\Nc1nc(-c2ccccc2)cs1)/c1ccc(-n2ccnc2)cc1` yielded an MIC in data set [1] of 72.5 µM (≈ 25 µg/mL). Further, the cytotoxicity at 50 ug/ml in data set [2] was determined as 21.8%.

Consider `Fc1ccc(-c2csc(N/N=C/c3ccc(-n4ccnc4)cc3)n2)cc1`, for which inhibition of growth in data set [1] (MIC) required 4.3 µM (≈ 1.56 µg/mL). For the same compound, in data set [2], the cytotoxicity at 50 ug/ml was 18.7%.

With `Clc1ccc(-c2csc(N/N=C/c3ccc(-n4ccnc4)cc3)n2)cc1`, in data set [1], the minimal inhibitory concentration (MIC) worked out at 8.22 µM (≈ 3.12 µg/mL). The cytotoxicity at 50 ug/ml in data set [2] is 32.1%.

In turn, `Brc1ccc(-c2csc(N/N=C/c3ccc(-n4ccnc4)cc3)n2)cc1` displayed an MIC in data set [1] of 59.1 µM (≈ 25.1 µg/mL). Besides, the cytotoxicity at 50 ug/ml in data set [2] came to 36.8%.

For the compound `Clc1ccc(-c2csc(N/N=C/c3ccc(-n4ccnc4)cc3)n2)c(Cl)c1`, in data set [1], the minimum inhibitory concentration (MIC) stood at 15.1 µM (≈ 6.26 µg/mL). In data set [2], the cytotoxicity at 50 ug/ml amounted to 28.8%.

In turn, `Cc1ccc(-c2csc(N/N=C/c3ccc(-n4ccnc4)cc3)n2)cc1` registered an MIC in data set [1] of 33 µM (≈ 11.9 µg/mL). The cytotoxicity at 50 ug/ml in data set [2] was determined as 36%.

With `COc1ccc(-c2csc(N/N=C/c3ccc(-n4ccnc4)cc3)n2)cc1`, 4.16 µM (≈ 1.56 µg/mL) was the least that counted as inhibitory in data set [1] (MIC). Also, the cytotoxicity at 50 ug/ml in data set [2] amounted to 26.8%.

For the compound `O=[N+]([O-])c1ccc(-c2csc(N/N=C/c3ccc(-n4ccnc4)cc3)n2)cc1`, the minimal inhibitory concentration (MIC) in data set [1] is 1.03 µM (≈ 0.402 µg/mL). Moreover, in data set [2], the cytotoxicity at 50 ug/ml worked out at 16.4%.

In the case of `C(=N\Nc1nc(-c2ccccc2)cs1)/c1ccc(-n2cncn2)cc1`, in data set [1], the MIC was 72.2 µM (≈ 25 µg/mL). For the same compound, the cytotoxicity at 50 ug/ml in data set [2] was determined as 28.4%.

Consider `Fc1ccc(-c2csc(N/N=C/c3ccc(-n4cncn4)cc3)n2)cc1`, for which the MIC in data set [1] was 4.29 µM (≈ 1.56 µg/mL). In addition, the cytotoxicity at 50 ug/ml in data set [2] was determined as 35.9%.

`Clc1ccc(-c2csc(N/N=C/c3ccc(-n4cncn4)cc3)n2)cc1` had a minimal inhibitory concentration (MIC) in data set [1] of 8.2 µM (≈ 3.12 µg/mL). The cytotoxicity at 50 ug/ml in data set [2] stood at 28.4%.

Consider `Brc1ccc(-c2csc(N/N=C/c3ccc(-n4cncn4)cc3)n2)cc1`, for which the minimum inhibitory concentration (MIC) in data set [1] turned out to be 29.5 µM (≈ 12.5 µg/mL). In addition, in data set [2], the cytotoxicity at 50 ug/ml was 32.6%.

Regarding `Clc1ccc(-c2csc(N/N=C/c3ccc(-n4cncn4)cc3)n2)c(Cl)c1`, the MIC in data set [1] is 3.76 µM (≈ 1.56 µg/mL). For the same compound, the cytotoxicity at 50 ug/ml in data set [2] came out at 8.9%.

`Cc1ccc(-c2csc(N/N=C/c3ccc(-n4cncn4)cc3)n2)cc1` displayed an MIC in data set [1] of 4.33 µM (≈ 1.56 µg/mL). Also, in data set [2], the cytotoxicity at 50 ug/ml worked out at 13.6%.

In turn, `COc1ccc(-c2csc(N/N=C/c3ccc(-n4cncn4)cc3)n2)cc1` showed an MIC in data set [1] of 16.6 µM (≈ 6.26 µg/mL). Further, the cytotoxicity at 50 ug/ml in data set [2] amounted to 23%.

For the compound `O=[N+]([O-])c1ccc(-c2csc(N/N=C/c3ccc(-n4cncn4)cc3)n2)cc1`, in data set [1], the minimal inhibitory concentration (MIC) was 3.99 µM (≈ 1.56 µg/mL). For the same compound, in data set [2], the cytotoxicity at 50 ug/ml was determined as 12.9%.

In data set [1], `CC[C@@H](CO)NCCN[C@@H](CC)CO` [ETHAMBUTOL] had an MIC of 7.65 µM (≈ 1.56 µg/mL).

The compound `NNC(=O)c1ccncc1` [ISONIAZID] had an MIC in data set [1] of 0.36 µM (≈ 0.0494 µg/mL).

For `CO[C@H]1/C=C/O[C@@]2(C)Oc3c(C)c(O)c4c(O)c(c(/C=N/N5CCN(C)CC5)c(O)c4c3C2=O)NC(=O)/C(C)=C\C=C\[C@H](C)[C@H](O)[C@@H](C)[C@@H](O)[C@@H](C)[C@H](OC(C)=O)[C@@H]1C` [RIFAMPIN], in data set [1], it took 0.12 µM (≈ 0.0988 µg/mL) to inhibit growth (MIC).
